15 compounds from patent US12448389B2, “BRM targeting compounds and associated methods of use” (Prelude Therapeutics Incorporated, priority 2020, dated 2025) can be followed below.

Assay [1] concerns the target T1, SMARCA2-HiBiT (Homo sapiens, UniProt P51531).
T1 construct: SMARCA2-HiBiT knock-in Hela monoclonal cell (CS302366); host or cells: HeLa monoclonal knock-in line (CRISPR HiBiT knock-in at the endogenous locus, heterozygous)
Briefly: SMARCA2 HiBiT degradation assay in HeLa cells. The format is cell-based. Conditions: 18 hours incubation; for DC50: read-out: HeLa_HiBit-SM2 DC50; for Dmax: HeLa, read-out: HeLa-HiBit-SM2 Dmax (%). The method in brief:
(§1)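 HeLa monoclonal lines with heterozygous HiBiT knock-in were seeded at 2500 cells/well in EMEM with 10% FBS and treated with compound for 18 h at 37 °C. Remaining tagged protein was measured by Nano-Glo HiBiT lytic luminescence after 30–60 min at RT, and values came from curve fitting.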
For orientation: HiBiT is a short tag that completes a luciferase, so light tracks the accessible tagged protein.

Assay [2] has as its target T2, SMARCA4-HiBiT (Homo sapiens, UniProt P51532).
T2 construct: SMARCA4-HiBiT knock-in Hela monoclonal cell (CS3023226); host or cells: HeLa monoclonal knock-in line (CRISPR HiBiT knock-in at the endogenous locus, heterozygous)
Briefly: SMARCA4 HiBiT degradation assay in HeLa cells. In kind it is cell-based. Conditions: 18 hours incubation; for DC50: read-out: HeLa-HiBit-SM4 DC50; for Dmax: HeLa, read-out: HeLa-HiBit-SM4 Dmax (%). The method in brief: as §1

The structures appear in SMILES notation.

T1 sequence (P51531 whole entry): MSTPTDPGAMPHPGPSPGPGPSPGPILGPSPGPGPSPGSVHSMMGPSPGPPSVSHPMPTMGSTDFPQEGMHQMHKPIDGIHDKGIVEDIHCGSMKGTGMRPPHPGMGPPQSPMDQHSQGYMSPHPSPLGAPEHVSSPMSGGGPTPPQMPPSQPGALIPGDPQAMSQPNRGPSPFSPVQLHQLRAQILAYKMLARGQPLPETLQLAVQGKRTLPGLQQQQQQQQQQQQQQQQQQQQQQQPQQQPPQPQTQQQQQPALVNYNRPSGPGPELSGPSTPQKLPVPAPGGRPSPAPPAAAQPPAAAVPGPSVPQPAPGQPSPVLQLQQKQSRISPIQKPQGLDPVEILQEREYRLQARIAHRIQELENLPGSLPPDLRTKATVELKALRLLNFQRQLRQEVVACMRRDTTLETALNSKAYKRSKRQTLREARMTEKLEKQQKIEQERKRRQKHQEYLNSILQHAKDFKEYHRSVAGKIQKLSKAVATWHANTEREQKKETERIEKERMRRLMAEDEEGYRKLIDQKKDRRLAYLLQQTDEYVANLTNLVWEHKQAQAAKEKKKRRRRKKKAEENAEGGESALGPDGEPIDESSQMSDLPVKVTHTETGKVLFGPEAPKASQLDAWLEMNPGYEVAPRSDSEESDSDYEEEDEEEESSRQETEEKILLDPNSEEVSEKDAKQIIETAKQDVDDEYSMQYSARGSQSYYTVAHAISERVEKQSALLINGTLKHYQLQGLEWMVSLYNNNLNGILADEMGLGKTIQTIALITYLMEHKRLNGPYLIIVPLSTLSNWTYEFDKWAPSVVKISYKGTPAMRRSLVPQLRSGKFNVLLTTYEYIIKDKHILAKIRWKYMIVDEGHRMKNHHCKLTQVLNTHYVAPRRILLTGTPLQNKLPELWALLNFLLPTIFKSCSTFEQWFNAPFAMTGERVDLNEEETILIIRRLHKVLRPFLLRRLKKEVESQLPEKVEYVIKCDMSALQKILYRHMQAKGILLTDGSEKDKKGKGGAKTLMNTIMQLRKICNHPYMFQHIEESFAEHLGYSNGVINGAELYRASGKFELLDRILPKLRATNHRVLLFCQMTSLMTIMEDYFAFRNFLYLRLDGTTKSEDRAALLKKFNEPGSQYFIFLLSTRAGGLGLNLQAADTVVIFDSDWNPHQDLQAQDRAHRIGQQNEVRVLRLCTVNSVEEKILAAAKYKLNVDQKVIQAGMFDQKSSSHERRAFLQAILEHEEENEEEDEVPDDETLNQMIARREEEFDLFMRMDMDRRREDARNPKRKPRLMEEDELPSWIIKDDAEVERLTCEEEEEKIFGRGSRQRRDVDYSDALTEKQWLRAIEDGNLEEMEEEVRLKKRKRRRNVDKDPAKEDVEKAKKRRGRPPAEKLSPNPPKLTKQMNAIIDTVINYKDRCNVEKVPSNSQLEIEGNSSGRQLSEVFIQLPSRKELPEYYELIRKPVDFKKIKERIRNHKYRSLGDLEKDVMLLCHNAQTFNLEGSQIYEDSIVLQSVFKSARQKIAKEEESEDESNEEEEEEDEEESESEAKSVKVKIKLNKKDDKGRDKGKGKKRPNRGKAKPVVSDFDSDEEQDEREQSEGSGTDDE
T2 sequence (P51532 whole entry): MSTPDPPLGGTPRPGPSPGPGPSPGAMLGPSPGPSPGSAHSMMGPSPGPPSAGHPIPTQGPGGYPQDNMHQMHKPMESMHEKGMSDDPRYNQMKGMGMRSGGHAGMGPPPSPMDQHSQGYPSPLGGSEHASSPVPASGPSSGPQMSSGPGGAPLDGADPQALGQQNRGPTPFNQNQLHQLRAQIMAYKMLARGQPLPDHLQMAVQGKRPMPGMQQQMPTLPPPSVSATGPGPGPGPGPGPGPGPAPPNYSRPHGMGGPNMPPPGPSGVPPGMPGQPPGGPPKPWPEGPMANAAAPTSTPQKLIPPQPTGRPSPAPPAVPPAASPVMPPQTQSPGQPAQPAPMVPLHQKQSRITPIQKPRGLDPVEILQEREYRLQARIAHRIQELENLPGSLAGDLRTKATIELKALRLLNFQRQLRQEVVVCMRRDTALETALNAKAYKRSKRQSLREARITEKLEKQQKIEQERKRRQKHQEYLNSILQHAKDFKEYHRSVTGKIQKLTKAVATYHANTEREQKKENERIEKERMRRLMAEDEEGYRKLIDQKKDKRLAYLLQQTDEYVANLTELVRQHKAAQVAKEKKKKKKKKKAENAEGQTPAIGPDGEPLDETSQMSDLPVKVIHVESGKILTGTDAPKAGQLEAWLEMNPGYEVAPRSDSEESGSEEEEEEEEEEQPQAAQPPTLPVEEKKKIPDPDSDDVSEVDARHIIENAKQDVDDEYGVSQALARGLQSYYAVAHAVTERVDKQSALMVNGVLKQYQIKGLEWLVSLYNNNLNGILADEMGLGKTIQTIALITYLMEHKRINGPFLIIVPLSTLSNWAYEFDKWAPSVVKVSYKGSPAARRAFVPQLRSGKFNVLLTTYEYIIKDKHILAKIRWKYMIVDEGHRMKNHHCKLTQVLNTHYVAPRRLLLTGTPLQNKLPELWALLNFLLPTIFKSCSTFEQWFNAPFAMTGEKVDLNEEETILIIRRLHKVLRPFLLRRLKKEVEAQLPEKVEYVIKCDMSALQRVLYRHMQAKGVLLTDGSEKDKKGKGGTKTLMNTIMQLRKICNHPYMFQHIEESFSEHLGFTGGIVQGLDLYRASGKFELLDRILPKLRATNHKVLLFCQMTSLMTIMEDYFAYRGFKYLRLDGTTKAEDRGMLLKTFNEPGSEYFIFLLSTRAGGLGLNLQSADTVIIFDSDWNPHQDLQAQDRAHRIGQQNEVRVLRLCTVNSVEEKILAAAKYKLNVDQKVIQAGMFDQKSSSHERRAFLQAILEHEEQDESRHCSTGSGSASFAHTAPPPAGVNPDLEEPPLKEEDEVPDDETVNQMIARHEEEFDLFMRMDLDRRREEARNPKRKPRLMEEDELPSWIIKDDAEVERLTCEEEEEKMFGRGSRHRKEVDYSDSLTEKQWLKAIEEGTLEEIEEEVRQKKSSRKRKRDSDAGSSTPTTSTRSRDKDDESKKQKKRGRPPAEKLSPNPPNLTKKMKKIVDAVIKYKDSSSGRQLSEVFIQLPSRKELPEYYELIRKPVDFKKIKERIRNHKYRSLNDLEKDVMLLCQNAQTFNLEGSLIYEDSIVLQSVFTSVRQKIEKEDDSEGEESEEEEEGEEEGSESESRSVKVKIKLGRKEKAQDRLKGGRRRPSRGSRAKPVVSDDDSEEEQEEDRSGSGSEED

Consider `O=C1CCC(N2Cc3cc(C4CCN(C5CCCN(CCN6CCN7c8cc(-c9ccccc9O)nnc8NC[C@H]7C6)C5)CC4)ccc3C2=O)C(=O)N1` (stereo partly drawn) [Example 211, 3-(5-(1′-(2-((S)-2-(2-hydroxyphenyl)-5,6,6a,7,9,10-hexahydro-8H-pyrazino[1′,2′:4,5]pyrazino[2,3-c]pyridazin-8-yl)ethyl)-[1,3′-bipiperidin]-4-yl)-1-oxoisoindolin-2-yl)piperidine-2,6-dione], for which, in assay [1], the DC50 is less than 0.01 µM and the Dmax was more than 85%. Moreover, in assay [2], the DC50 was less than 0.01 µM and the Dmax is more than 85%.

On to `O=C1CCC(N2Cc3cc(C4CCN(C5CCN(CCN6CCN7c8cc(-c9ccccc9O)nnc8NC[C@H]7C6)CC5)CC4)ccc3C2=O)C(=O)N1` (stereo partly drawn) [Example 212, 3-(5-(1′-(2-((S)-2-(2-hydroxyphenyl)-5,6,6a,7,9,10-hexahydro-8H-pyrazino[1′,2′:4,5]pyrazino[2,3-c]pyridazin-8-yl)ethyl)-[1,4′-bipiperidin]-4-yl)-1-oxoisoindolin-2-yl)piperidine-2,6-dione], for which, in assay [1], the DC50 was less than 0.01 µM and the maximal degradation (Dmax) was more than 85%. In assay [2], the 50% degradation concentration (DC50) was less than 0.01 µM and the Dmax was more than 85%.

In the case of `O=C1CCC(N2Cc3cc(C4CCN(CC5CCN(CCN6CCN7c8cc(-c9ccccc9O)nnc8NC[C@H]7C6)CC5)CC4)ccc3C2=O)C(=O)N1` (stereo partly drawn) [Example 213, 3-(5-(1-((1-(2-((S)-2-(2-hydroxyphenyl)-5,6,6a,7,9,10-hexahydro-8H-pyrazino[1′,2′:4,5]pyrazino[2,3-c]pyridazin-8-yl)ethyl)piperidin-4-yl)methyl)piperidin-4-yl)-1-oxoisoindolin-2-yl)piperidine-2,6-dione], the 50% degradation concentration (DC50) in assay [1] and in assay [2] was less than 0.01 µM in each case. The Dmax in assay [1] and in assay [2] was more than 85% throughout.

For the compound `CC(CN1CCC(N2CCN3c4cc(-c5ccccc5O)nnc4NC[C@H]3C2)CC1)Oc1ccc2c(c1)CN([C@@H]1CCC(=O)NC1=O)C2=O` (stereo partly drawn) [Example 214, (3R)-3-(5-((1-(4-((S)-2-(2-hydroxyphenyl)-5,6,6a,7,9,10-hexahydro-8H-pyrazino[1′,2′:4,5]pyrazino[2,3-c]pyridazin-8-yl)piperidin-1-yl)propan-2-yl)oxy)-1-oxoisoindolin-2-yl)piperidine-2,6-dione], in assay [1], the DC50 is less than 0.01 µM and the Dmax was 75 to 85%. In assay [2], the DC50 was less than 0.01 µM and the Dmax lay in the range of 50 to 75%.

Regarding `CC(COc1ccc2c(c1)CN([C@@H]1CCC(=O)NC1=O)C2=O)N1CCC(N2CCN3c4cc(-c5ccccc5O)nnc4NC[C@H]3C2)CC1` (stereo partly drawn) [Example 215, (3R)-3-(5-(2-(4-((S)-2-(2-hydroxyphenyl)-5,6,6a,7,9,10-hexahydro-8H-pyrazino[1′,2′:4,5]pyrazino[2,3-c]pyridazin-8-yl)piperidin-1-yl)propoxy)-1-oxoisoindolin-2-yl)piperidine-2,6-dione], in assay [1], the DC50 is less than 0.01 µM and the Dmax was 50 to 75%. In assay [2], the DC50 was in the range of 0.01 to 0.1 µM and the Dmax was 50 to 75%.

As to `O=C1CCC(N2C(=O)c3ccc(OC4CCN(CC5CCN(CCN6CCN7c8cc(-c9ccccc9O)nnc8NC[C@H]7C6)CC5)CC4)cc3C2=O)C(=O)N1` (stereo partly drawn) [Example 216, 2-(2,6-dioxopiperidin-3-yl)-5-((1-((1-(2-((S)-2-(2-hydroxyphenyl)-5,6,6a,7,9,10-hexahydro-8H-pyrazino[1′,2′:4,5]pyrazino[2,3-c]pyridazin-8-yl)ethyl)piperidin-4-yl)methyl)piperidin-4-yl)oxy) isoindoline-N, 3-dione], the DC50 in assay [1] and in assay [2] was less than 0.01 µM each time. The Dmax in assay [1] was more than 85%; in assay [2] it was 50 to 75%.

For the compound `O=C1CCC(N2Cc3cc(N4CCN(CC5CCN(CCN6CCN7c8cc(-c9ccccc9O)nnc8NC[C@H]7C6)CC5)CC4)ccc3C2=O)C(=O)N1` (stereo partly drawn) [Example 217, 3-(5-(4-((1-(2-((S)-2-(2-hydroxyphenyl)-5,6,6a,7,9,10-hexahydro-8H-pyrazino [1′,2′:4,5]pyrazino[2,3-c]pyridazin-8-yl)ethyl)piperidin-4-yl)methyl)piperazin-1-yl)-1-oxoisoindolin-2-yl)piperidine-2,6-dione], in assay [1], the DC50 was less than 0.01 µM and the Dmax is more than 85%. Moreover, in assay [2], the DC50 was less than 0.01 µM and the Dmax was more than 85%.

Consider `O=C1CCC(N2C(=O)c3ccc(N4CCCC(N5CCC(CN6CCN7c8cc(-c9ccccc9O)nnc8NC[C@H]7C6)CC5)C4)cc3C2=O)C(=O)N1` (stereo partly drawn) [Example 218, 2-(2,6-dioxopiperidin-3-yl)-5-(4-(((S)-2-(2-hydroxyphenyl)-5,6,6a,7,9,10-hexahydro-8H-pyrazino[1′,2′:4,5]pyrazino[2,3-c]pyridazin-8-yl)methyl)-[1,3′-bipiperidin]-1′-yl) isoindoline-1,3-dione], for which, in assay [1], the DC50 was less than 0.01 µM and the Dmax is more than 85%. Moreover, in assay [2], the DC50 was less than 0.01 µM and the Dmax was in the range of 75 to 85%.

Take `O=C1CCC(N2C(=O)c3ccc(NCCN4CCN(C(=O)N5CCN6c7cc(-c8ccccc8O)nnc7NC[C@H]6C5)CC4)cc3C2=O)C(=O)N1` (stereo partly drawn) [Example 219, 2-(2,6-dioxopiperidin-3-yl)-5-((2-(4-((S)-2-(2-hydroxyphenyl)-6,6a,7,8,9,10-hexahydro-511-pyrazino[1′,2′:4,5]pyrazino[2,3-c]pyridazine-8-carbonyl)piperazin-1-yl)ethyl)amino) isoindoline-1,3-dione]: in assay [1], the DC50 was less than 0.01 µM and the Dmax fell in the range of 50 to 75%. Further, in assay [2], the DC50 was in the range of 0.01 to 0.1 µM and the Dmax was not above 50%.

On to `CN(CCNc1ccc2c(c1)C(=O)N(C1CCC(=O)NC1=O)C2=O)C1CCC(N2CCN3c4cc(-c5ccccc5O)nnc4NC[C@H]3C2)CC1` (stereo partly drawn) [Example 220, 2-(2,6-dioxopiperidin-3-yl)-5-((2-((4-((S)-2-(2-hydroxyphenyl)-5,6,6a,7,9,10-hexahydro-8H-pyrazino[1′,2′:4,5]pyrazino[2,3-c]pyridazin-8-yl)cyclohexyl)(methyl)amino)ethyl)amino) isoindoline-1,3-dione], for which, in assay [1], the DC50 is less than 0.01 µM and the greatest degradation seen (Dmax) is 75 to 85%. Also, in assay [2], the DC50 was less than 0.01 µM and the maximal degradation (Dmax) fell in the range of 75 to 85%.

`O=C1CCC(N2C(=O)c3ccc(N4CCN(C5CCN(CCN6CCN7c8cc(-c9ccccc9O)nnc8NC[C@H]7C6)C5)CC4)cc3C2=O)C(=O)N1` (stereo partly drawn) [Example 221, 2-(2,6-dioxopiperidin-3-yl)-5-(4-(1-(2-((S)-2-(2-hydroxyphenyl)-5,6,6a,7,9,10-hexahydro-8H-pyrazino[1′,2′:4,5]pyrazino[2,3-c]pyridazin-8-yl)ethyl)pyrrolidin-3-yl)piperazin-1-yl) isoindoline-1,3-dione]: in assay [1], the DC50 is less than 0.01 µM and the Dmax lay within 75 to 85%. In addition, in assay [2], the DC50 was less than 0.01 µM and the Dmax lay in the range of 50 to 75%.

As for `CN(CCN1CCC(C(=O)N2CCN3c4cc(-c5ccccc5O)nnc4NC[C@H]3C2)CC1)c1ccc2c(c1)C(=O)N(C1CCC(=O)NC1=O)C2=O` (stereo partly drawn) [Example 222, 2-(2,6-dioxopiperidin-3-yl)-5-((2-(4-((S)-2-(2-hydroxyphenyl)-6,6a,7,8,9,10-hexahydro-5H-pyrazino[1′,2′:4,5]pyrazino[2,3-c]pyridazine-8-carbonyl)piperidin-1-yl)ethyl)(methyl)amino) isoindoline-1,3-dione], the figures for the DC50 in assay [1] and in assay [2] were less than 0.01 µM and 0.1 to 1 µM, respectively. In addition, the Dmax was 50 to 75% in assay [1] and not above 50% in assay [2].

With `O=C1CCC(N2C(=O)c3ccc(N4CCN(C(=O)OCCN5CCC(N6CCN7c8cc(-c9ccccc9O)nnc8NC[C@H]7C6)CC5)CC4)cc3C2=O)C(=O)N1` (stereo partly drawn) [Example 223, 2-(4-((S)-2-(2-hydroxyphenyl)-5,6,6a,7,9,10-hexahydro-8H-pyrazino[1′,2′:4,5]pyrazino[2,3-c]pyridazin-8-yl)piperidin-1-yl)ethyl 4-(2-(2,6-dioxopiperidin-3-yl)-1,3-dioxoisoindolin-5-yl)piperazine-1-carboxylate], in assay [1], the DC50 is less than 0.01 µM and the Dmax is 75 to 85%. In assay [2], the half-maximal degradation concentration (DC50) was less than 0.01 µM and the Dmax fell in the range of 75 to 85%.

Regarding `O=C1CCC(N2C(=O)c3ccc(N4CCC(CCN5CCC(CN6CCN7c8cc(-c9ccccc9O)nnc8NC[C@H]7C6)CC5)CC4)cc3C2=O)C(=O)N1` (stereo partly drawn) [Example 224, 2-(2,6-dioxopiperidin-3-yl)-5-(4-(2-(4-(((S)-2-(2-hydroxyphenyl)-5,6,6a,7,9,10-hexahydro-8H-pyrazino[1′,2′:4,5]pyrazino[2,3-c]pyridazin-8-yl)methyl)piperidin-1-yl)ethyl)piperidin-1-yl)isoindoline-1,3-dione], the DC50 in assay [1] and in assay [2] was less than 0.01 µM each time. Also, the Dmax in assay [1] and in assay [2] was 75 to 85% throughout.

As to `O=C1CCC(N2C(=O)c3ccc(N4CCC(CN5CCC(CN6CCN7c8cc(-c9ccccc9O)nnc8NC[C@H]7C6)CC5)C4)cc3C2=O)C(=O)N1` (stereo partly drawn) [Example 225, 2-(2,6-dioxopiperidin-3-yl)-5-(3-((4-(((S)-2-(2-hydroxyphenyl)-5,6,6a,7,9,10-hexahydro-8H-pyrazino[1′,2′:4,5]pyrazino[2,3-c]pyridazin-8-yl)methyl)piperidin-1-yl)methyl)pyrrolidin-1-yl)isoindoline-1,3-dione], in assay [1], the DC50 is less than 0.01 µM and the Dmax was more than 85%. In assay [2], the DC50 was less than 0.01 µM and the Dmax was more than 85%.

For orientation: DC50 means the concentration giving 50% degradation. By Dmax is commonly meant the greatest extent of degradation seen.
